Key:
Format in all cases: biochemical
[1] = target: T1, Hordeum HPPD variant L320Q (Hordeum vulgare, UniProt O48604, A164G/L320Q/R146V/R147D/R148G); assay: HPPD activity assay, Hordeum HPPD mutant L320Q; details: normalized on wildtype
T1 construct: His6; made in house; host or cells: E. coli BL21 (DE3)
Procedure: (§1) HPPD produces homogentisic acid and CO2 from 4-hydroxyphenylpyruvate (4-HPP) and O2. The activity assay for HPPD is based on the analysis of homogentisic acid by reversed phase HPLC.
(§2) The assay mixture can contain 150 mM potassium phosphate buffer pH 7.0, 50 mM L-ascorbic acid, 1 μM FeSO4 and 7 μg of purified enzyme in a total volume of 1 ml. Inhibitors are dissolved in DMSO (dimethylsulfoxide) to a concentration of 20 mM or 0.5 mM, respectively. From this stock solution serial five-fold dilutions are prepared in DMSO, which are used in the assay. The respective inhibitor solution accounts for 1% of the assay volume. Thus, final inhibitor concentrations range from 200 μM to 2.5 nM or from 5 μM to 63 pM, respectively. After a preincubation of 30 min the reaction is started by adding 4-HPP to a final concentration of 0.1 mM. […]
(§3) Inhibitors are dissolved in DMSO (dimethylsulfoxide) to a concentration of 0.5 mM. […] IC50 values are calculated using non-linear regression.
(§4) Purified, mutant HPPD enzymes are obtained by the methods described above. […] Apparent michaelis constants (Km) and maximal reaction velocities (Vmax) are calculated by non-linear regression with the software GraphPad Prism 5 (GraphPad Software, La Jolla, USA) using a substrate inhibition model. […] Weighted means (by standard error) of Km and […] values are calculated from at least three independent experiments. […]

Rhodococcus HPPD2 = assay: HPPD activity assay, Rhodococcus HPPD2; details: normalized on Hordeum HPPD
Procedure: as §1
as §2, with “volume.” for “volume. Thus, final inhibitor concentrations range from 200 μM to 2.5 nM or from 5 μM to 63 pM, respectively. After a preincubation of 30 min the reaction is started by adding 4-HPP to a final concentration of 0.1 mM.”
(§5) Activities are normalized by setting the uninhibited enzyme activity to 100%. […] values are calculated using non-linear regression. […]
as §3
(§6) Using methods which are described in the above examples or well known in the art, purified, recombinant wildtype HPPD enzymes are characterized with respect to their kinetic properties and sensitivity towards HPPD inhibiting herbicides. Apparent michaelis constants (Km) and maximal reaction velocities (Vmax) are calculated by non-linear regression with the software GraphPad Prism 5 (GraphPad Software, La Jolla, USA) using a substrate inhibition model. […]

Blepharisma HPPD = assay: HPPD activity assay, Blepharisma HPPD; details: normalized on Hordeum HPPD
Procedure: as §1
as §2, with “volume.” for “volume. Thus, final inhibitor concentrations range from 200 μM to 2.5 nM or from 5 μM to 63 pM, respectively. After a preincubation of 30 min the reaction is started by adding 4-HPP to a final concentration of 0.1 mM.”
as §5, §3, §6

[2] = target: T2, Hordeum HPPD variant L334E (Hordeum vulgare, UniProt O48604, A164G/L334E/R146V/R147D/R148G); assay: HPPD activity assay, Hordeum HPPD mutant L334E; details: normalized on wildtype
T2 construct: His6; made in house; host or cells: E. coli BL21 (DE3)
T2 sequence (O48604 whole entry R146V/R147D/R148G/A164G/L334E): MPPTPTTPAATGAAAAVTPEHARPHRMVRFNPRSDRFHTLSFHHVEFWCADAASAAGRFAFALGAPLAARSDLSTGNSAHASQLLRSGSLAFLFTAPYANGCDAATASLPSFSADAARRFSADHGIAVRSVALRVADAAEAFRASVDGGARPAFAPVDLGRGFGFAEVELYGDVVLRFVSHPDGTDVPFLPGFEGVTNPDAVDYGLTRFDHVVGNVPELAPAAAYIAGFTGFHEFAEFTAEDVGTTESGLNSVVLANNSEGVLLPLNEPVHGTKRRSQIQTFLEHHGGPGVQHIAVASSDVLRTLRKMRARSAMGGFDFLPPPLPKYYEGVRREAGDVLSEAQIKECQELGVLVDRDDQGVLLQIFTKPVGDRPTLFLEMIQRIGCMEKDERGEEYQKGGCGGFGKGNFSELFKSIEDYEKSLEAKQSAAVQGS
Procedure: as §1, §2, §3, §4

[3] = target: T3, Arabidopsis HPPD (SEQ ID: 53) (Arabidopsis thaliana, UniProt P93836); assay: HPPD activity assay, wildtype Arabidopsis HPPD; details: for Normalized tolerance index (TI): Arabidopsis HPPD Wildtype, normalized on wildtype (Table 11); for Ki / TI (tolerance index): Arabidopsis HPPD; for Ki: Cheng-Prusoff from IC50, read-out: Ki (dissociation constant); for TI (tolerance index): not normalized
T3 construct: His6 (N); made in house; host or cells: E. coli BL21 (DE3)
T3 sequence (P93836 1-445): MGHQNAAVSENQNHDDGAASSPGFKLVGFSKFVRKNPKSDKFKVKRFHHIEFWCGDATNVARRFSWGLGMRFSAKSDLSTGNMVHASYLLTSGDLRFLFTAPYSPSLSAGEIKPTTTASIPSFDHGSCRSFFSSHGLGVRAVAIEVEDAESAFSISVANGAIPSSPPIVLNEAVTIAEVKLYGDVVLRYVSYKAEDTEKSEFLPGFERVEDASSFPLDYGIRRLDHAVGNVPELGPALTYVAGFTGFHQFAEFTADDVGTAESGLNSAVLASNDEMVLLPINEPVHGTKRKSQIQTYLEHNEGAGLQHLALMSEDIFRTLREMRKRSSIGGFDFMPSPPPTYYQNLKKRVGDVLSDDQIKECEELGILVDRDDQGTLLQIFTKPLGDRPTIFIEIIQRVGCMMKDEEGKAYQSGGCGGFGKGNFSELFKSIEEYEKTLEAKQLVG
Procedure: as §1
The assay mixture can contain 150 mM potassium phosphate buffer pH 7.0, 50 mM L-ascorbic acid, 1 μM FeSO4 and 7 μg of purified enzyme in a total volume of 1 ml. Inhibitors are dissolved in DMSO (dimethylsulfoxide) to a concentration of 20 mM or 0.5 mM, respectively. From this stock solution serial five-fold dilutions are prepared in DMSO, which are used in the assay. The respective inhibitor solution accounts for 1% of the assay volume. Thus, final inhibitor concentrations range from 200 μM to 2.5 nM or from 5 μM to 63 pM, respectively. After a preincubation of 30 min the reaction is started by adding 4-HPP to a final concentration of 0.1 mM. The reaction is allowed to proceed for 120 min at room temperature. The reaction is stopped by addition of 100 μl of 4.5 M phosphoric acid.
Activities are normalized by setting the uninhibited enzyme activity to 100%. […] values are calculated using non-linear regression.
The assay mixture can contain 150 mM potassium phosphate buffer pH 7.0, 50 mM L-ascorbic acid, 100 μM Catalase (Sigma-Aldrich), 1 μM FeSO4 and 0.2 units of purified HPPD enzyme in a total volume of 505 μl. 1 unit is defined as the amount of enzyme that is required to produce 1 nmol of HGA per minute at 20° C.
Inhibitors are dissolved in DMSO (dimethylsulfoxide) to a concentration of 0.5 mM. From this stock solution serial five-fold dilutions are prepared in DMSO, which are used in the assay. The respective inhibitor solution accounts for 1% of the assay volume. Thus, final inhibitor concentrations range from 5 μM to 320 pM, respectively. Activities are normalized by setting the uninhibited enzyme activity to 100%. IC50 values are calculated using non-linear regression.
Using methods which are described in the above examples or well known in the art, purified, recombinant wildtype HPPD enzymes are characterized with respect to their kinetic properties and sensitivity towards HPPD inhibiting herbicides. Apparent michaelis constants (Km) and maximal reaction velocities (Vmax) are calculated by non-linear regression with the software GraphPad Prism 5 (GraphPad Software, La Jolla, USA) using a substrate inhibition model. Apparent kcat values are calculated from Vmax assuming 100% purity of the enzyme preparation. Weighted means (by standard error) of Km and […] values are calculated from at least three independent experiments. The Cheng-Prusoff equation for competitive inhibition (Cheng, Y. C.; Prusoff, W. H. Biochem Pharmacol 1973, 22, 3099-3108) is used to calculate dissociation constants (Ki).
Field performance of the HPPD enzyme, which is used as a herbicide tolerance trait may depend not only on its lack of sensitivity towards HPPD inhibiting herbicides but also on its activity. To assess the potential performance of a herbicide tolerance trait a tolerance index (TI) is calculated using the following formula: […]
Easy comparison and ranking of each trait is enabled by normalizing every tolerance index on Hordeum HPPD.

[4] = target: T4, Hordeum HPPD variant G407C (Hordeum vulgare, UniProt O48604, A164G/G407C/R146V/R147D/R148G); assay: HPPD activity assay, Hordeum HPPD mutant G407C; details: normalized on wildtype
T4 construct: His6; made in house; host or cells: E. coli BL21 (DE3)
T4 sequence (O48604 whole entry R146V/R147D/R148G/A164G/G407C): as the sequence (O48604 whole entry R146V/R147D/R148G/A164G/L334E) above, with E334L, G407C counted along it
Procedure: as §1, §2, §3, §4

[5] = target: T5, Hordeum HPPD variant L353M, P321R, L320N (Hordeum vulgare, UniProt O48604, L320N/L353M/P321R); assay: HPPD activity assay, Hordeum HPPD mutant L353M, P321R, L320N; details: normalized on wildtype
T5 construct: His6; made in house; host or cells: E. coli BL21 (DE3)
T5 sequence (O48604 whole entry R146V/R147D/R148G/A164G/L320N/P321R/L353M): as the sequence (O48604 whole entry R146V/R147D/R148G/A164G/L334E) above, with L320N, P321R, E334L, L353M counted along it
Procedure: as §1, §2, §3, §4

[6] = target: T6, Hordeum HPPD variant L353M, P321R, V212I, L334E (Hordeum vulgare, UniProt O48604, L334E/L353M/P321R/V212I); assay: HPPD activity assay, Hordeum HPPD mutant L353M, P321R, V212I, L334E; details: normalized on wildtype
T6 construct: His6; made in house; host or cells: E. coli BL21 (DE3)
T6 sequence (O48604 whole entry R146V/R147D/R148G/A164G/V212I/P321R/L334E/L353M): as the sequence (O48604 whole entry R146V/R147D/R148G/A164G/L334E) above, with V212I, P321R, L353M counted along it
Procedure: as §1, §2, §3, §4

Avena HPPD = assay: HPPD activity assay, Avena HPPD; details: normalized on Hordeum HPPD
Procedure: as §1
as §2, with “volume.” for “volume. Thus, final inhibitor concentrations range from 200 μM to 2.5 nM or from 5 μM to 63 pM, respectively. After a preincubation of 30 min the reaction is started by adding 4-HPP to a final concentration of 0.1 mM.”
as §5, §3, §6

T1 sequence (O48604 whole entry R146V/R147D/R148G/A164G/L320Q): as the sequence (O48604 whole entry R146V/R147D/R148G/A164G/L334E) above, with L320Q, E334L counted along it

SMILES	Normalized tolerance index (TI) [1]	Normalized tolerance index (TI) (Rhodococcus HPPD2)	Normalized tolerance index (TI) (Blepharisma HPPD)	Normalized tolerance index (TI) [2]	Normalized tolerance index (TI) [3]	Ki [3]	TI (tolerance index) [3]	Normalized tolerance index (TI) [4]	Normalized tolerance index (TI) [5]	Normalized tolerance index (TI) [6]	Normalized tolerance index (TI) (Avena HPPD)
CC1=NOC(c2c(Cl)ccc(C3=C(O)c4ncccc4N(CC(F)F)S3(=O)=O)c2Cl)C1 (stereo not shown) [Inhibitor 1, 3-[2,4-dichloro-3-(3-methyl-4,5-dihydroisoxazol-5-yl)phenyl]-1-(2,2-difluoroethyl)-2,2-dioxo-pyrido[3,2-c]thiazin-4-ol]	3.4	73.9	6.3	3.8	1	3.3 nM	3.3E−3	1.6	2.5	2.4	7.4
O=S1(=O)C(c2c(Cl)cc(Cl)nc2Cl)=C(O)c2ncccc2N1CC(F)F [Inhibitor 2, 1-(2,2-difluoroethyl)-2,2-dioxo-3-(2,4,6-trichloro-3-pyridyl)pyrido[3,2-c]thiazin-4-ol]	1.8	20.5	4.9	2.2	1	15 nM	1.5E−2	3.2	3	3.8	5.2
